# Test results: patent publication US7462618B2, “Treatment of inflammatory autoimmune diseases with alpha-adrenergic antagonists and beta-adrenergic agonists” (Sun Health Research Institute, priority 2003, dated 2008)
# Columns and labels:
# Lewis rats with AA [1] = assay: Adjuvant-induced arthritis, dorsoplantar footpad width (Example 1); format: in vivo, rat; details: single drug i.p. twice a day from day 12; by day 28 post-adjuvant injection
# Protocol: Lewis rats with AA, a model for RA, were used to examine the combined action of the β2-adrenergic receptor agonist terbutaline and the non-specific α-AR antagonist phentolamine. AA was induced in adult male Lewis rats (200-225 gm) by a base of the tail intradermal injection of complete Freund's adjuvant (CFA). The CFA (0.03 g dried and heat killed Mycobacterium butyricum (Difco, Detroit, Mich.) emulsified in 10 ml sterile mineral oil) was prepared by grinding the M. butyricum with a mortar and pestle until the bacterial cell wall turned from a light beige to an eggshell white powder. The mineral oil was then slowly worked into the bacterial cell wall using the mortar and pestle. The suspension was treated with a sonic dismembraner for 5 minutes to ensure that the bacterial cell wall remained suspended in the mineral oil for animal injections. While there was variability in the severity of disease development between the preparations of adjuvant, there was very little variability within individual batches. […] The inflammatory response in the arthritic rats was assessed by routine methods previously described. Dorsoplantar width of the hind feet were measured using a Mitutoyo Corporation dial thickness gauge, beginning the day of CFA-immunization and continued approximately every other day until sacrifice. […]
# IL-10/TNFα = assay: Ex vivo IL-10 and TNFα production by cells of treated AA rats (sandwich ELISA); format: in vivo, rat; details: for Ratio of IL-10/TNFα: cells cultured 24 h, mean ± SEM, N = 6
# Source text: To determine if the adrenergic drug treatments were able to modify cytokine patterns in the secondary lymphoid organs and systemically in the blood, pro- and anti-inflammatory cytokine profiles were obtained ex vivo from cells harvested from the draining (inguinal and poplitial) lymph nodes, spleen and the PBMC from the animals described above. All tissue culture media and supplements were obtained from Gibco BRL (Rockville, Md.) unless otherwise stated. OPTIA sandwich ELISA kits for IL-10 and TNFα were purchased from Pharmingen (San Diego, Calif.). The spleen and lymph nodes were aseptically removed from the animal and placed into Hank's balanced salt solution (HBSS). The spleens were placed in a stomacher bag and homogenized for 30 seconds. […] The collected cells were centrifuged and re-suspended in 5 ml of a NH4Cl hypotonic buffer for 3 min to lyse the red blood cells. The cells were washed 2× with 10 ml HBSS, centrifuged and re-suspended into complete RPMI 1640 media supplemented with 5% fetal calf serum and 1% antibiotic/antimycotic. The draining (inguinal and poplitial) lymph nodes were placed into sterile etri dishes containing 5 ml HBSS. […] The homogenates then were passed through a nylon mesh, centrifuged and re-suspended in 5 ml HBSS. The cells then were centrifuged and re-suspended into complete RPMI 1640 media supplemented with 5% fetal calf serum and 1% antibiotic/antimycotic. PBMCs: Blood was collected using cardiac puncture into a 7 ml lithium heparin vaccutainer tubes. The tubes were inverted 7 times and then spun down at 1000 rpm for 15 minutes at 10° C. The buffy coat was removed using a 2 ml pipette and placed into a sterile 15 ml tube containing 10 ml of a NH4Cl hypotonic buffer for 3 min to lyse the red blood cells. The peripheral blood mononuclear cells (PBMC) were centrifuged and re-suspended in 10 ml HBSS. The PBMC were washed three more times with 10 ml HBSS, centrifuged and re-suspended into complete RPMI 1640 media supplemented with 5% fetal calf serum and 1% antibiotic/antimycotic. The prepared cells were counted using a hemocytometer, then brought to the concentration of 2×10^6 cells/ml. Two ml of the cell preparation were plated into 24 well plates (Falcon, Oxnard, Calif.), and in placed in an incubator 7% CO2, 37° C., for 24 h. After 24 h the culture supernatants were harvested and placed in the freezer at -70° C. until ELISA assay. Optia kits for the detection of IL-10 and TNFα were obtained from BD Pharmingen (Los Angeles, Calif.) and sandwich ELISAs were used to measure the amount cytokine released into the culture media. In brief: High binding microtiter 96-well plates were pre-coated with 100 μl of capture antibody in coating buffer (0.1 M carbonate buffer, pH 9.5) for IL-2, IL-4, IFNγ and TNFα and (0.2 M phosphate buffer, pH 6.5) for IL-10. The plates were sealed with plate film (Denville Scientific, South Plainfield, N.J.) and placed at 4° C. overnight. The plates were allowed to come to room temperature and washed with 0.1 M phosphate buffered saline-0.5% Tween 20 (PBS-Tw20). The non-specific binding was blocked using PBS-Tw20 and 1% bovine serum albumin. Standard/sample was then added to each well, the plates were sealed and incubated overnight at 4° C. The plate was washed three times with PBS-Tw20 and biotinylated secondary detection antibody and streptavidin/avidin enzyme conjugate (diluted in PBS-1% bovine serum albumin) were added to the wells and the plates incubated for 1.5 h. The plates were then washed and developed with (TMB) reagent (Pharmingen, San Diego, Calif.) for 30 minutes. After color development the plates were stopped with addition of IN sulfuric acid. Unknown sample cytokine levels were determined through comparison with a standard curve present on each plate using an ELISA reader ([…]: Bio Tek Instruments Incorporated, Winooski, Vt.). […]
# Lewis rats with AA [2] = assay: Adjuvant-induced arthritis, radiographic scores of hind limbs (Example 1); format: in vivo, rat; details: i.p. twice a day from day 12; day 28
# Protocol: Lewis rats with AA, a model for RA, were used to examine the combined action of the β2-adrenergic receptor agonist terbutaline and the non-specific α-AR antagonist phentolamine. AA was induced in adult male Lewis rats (200-225 gm) by a base of the tail intradermal injection of complete Freund's adjuvant (CFA). The CFA (0.03 g dried and heat killed Mycobacterium butyricum (Difco, Detroit, Mich.) emulsified in 10 ml sterile mineral oil) was prepared by grinding the M. butyricum with a mortar and pestle until the bacterial cell wall turned from a light beige to an eggshell white powder. The mineral oil was then slowly worked into the bacterial cell wall using the mortar and pestle. The suspension was treated with a sonic dismembraner for 5 minutes to ensure that the bacterial cell wall remained suspended in the mineral oil for animal injections. While there was variability in the severity of disease development between the preparations of adjuvant, there was very little variability within individual batches. All animals in each experiment were challenged with the same preparation of adjuvant and 100% of the animals developed arthritis. Phentolamine (an α-adrenergic receptor antagonist) and terbutaline (a β2-adrenergic receptor agonist) were obtained from Sigma Chemical Company (St. Louis, Mo.). Both adrenergic drugs were dissolved in 0.01 mM ascorbic acid in 0.9% sterile, endotoxin-free saline. Adrenergic therapy with phentolamine and/or terbutaline or vehicle was started on day 12 post-immunization, the time of disease onset, and continued until sacrifice. The dose of phentolamine (500 μg/Kg/day) and/or terbutaline (600 μg/day) were administered by intraperitoneal (i.p.) injections twice a day in a total volume of 500 μl per injection. […] X-rays were evaluated using a grading scale modified from Ackerman and coworkers. […] The radiographs were scored for each of the following characteristics: (1) swelling as indicated by the width of soft tissue shadows and alterations in the normal configuration of the soft tissue planes; (2) osteoporosis as measured by bone density (recognized by increases in radiolucency relative to uninvolved adjacent bone); (3) cartilage loss shown by narrowing of the joint spaces; and (4) heterotopic ossification defined as proliferation of new bone tissue (fine ossified line paralleling normal bone but not contiguous with calcified area of the bone itself). The radiographic scores for each category were added for both hind limbs giving a maximum score of 40, and the individual scores for each animal were then averaged within the treatment groups and expressed as a mean±standard error of the mean (SEM), and subjected to Kruskal-Wallis statistical analysis (non-parametric statistic equivalent to an ANOVA; p<0.05) followed by Dunn post-hoc testing. […]
# Th2 cell clones = details: treated before activation; cited from earlier work
# [3] = system: Th cells cultured with B cell clones; details: applied to Th cells before activation, cited from earlier work
# Th1 cell clones = details: cited from earlier work
# [4] = system: animals with fully expressed AA; details: cited from earlier work
# [5] = system: collagen-induced arthritis; details: in vivo; cited from earlier work
Compound,Soft tissue swelling (dorsoplantar footpad width) compared with vehicle-treated AA rats (Lewis rats with AA [1]),Ratio of IL-10/TNFα (IL-10/TNFα; DLN),Ratio of IL-10/TNFα (IL-10/TNFα; PBL),Ratio of IL-10/TNFα (IL-10/TNFα; SPL),Ratio of anti- to pro-inflammatory cytokine production by macrophage cells (IL-10/TNFα; secondary lymphoid organs and peripheral blood),Decrease in bone loss compared to vehicle-treated AA rats (Lewis rats with AA [2]) [%],Radiographic scores compared with vehicle controls (Lewis rats with AA [2]),IL-4 or IL-10 production by Th2 cell clones (Th2 cell clones),IgG2a production ([3]; blockable by nadolol or IFNγ),IgG1 production [3],IL-2-dependent T cell proliferation (Th1 cell clones),IL-2 and IFNγ production by Th1 cell clones (Th1 cell clones; treated before activation with antigen-specific B cells or anti-CD3 antibodies),Joint inflammation and destruction [4],Severity of collagen-induced arthritis [5]
Cc1ccc(N(CC2=NCCN2)c2cccc(O)c2)cc1 [Phentolamine],significantly decreased,1.0960 ± 0.1961,0.8067 ± 0.1762,3.3350 ± 0.6716,increase,51,significantly reduced,,,,,,,
"CC(C)(C)NCC(O)c1cc(O)cc(O)c1 (centres unmarked) [Terbutaline, terbutaline]",significantly decreased,1.5060 ± 0.1642,0.4382 ± 0.0471,2.1370 ± 0.8285,,~50,significantly reduced,does not affect,inhibited,not,reduced,inhibits,,
O=P(O)(O)C(Cl)(Cl)P(=O)(O)O [clodronate],,,,,,,,,,,,,significantly reduced,
CC(C)(C)NCC(O)c1ccc(O)c(CO)c1 (centres unmarked) [salbutamol],,,,,,,,,,,,,,reduces the severity
